Reference: patent US20250049828A1, “PHARMACEUTICAL COMPOSITION FOR TREATING TUMORS AND USE” (INXMED (NANJING) CO., LTD., priority 2021, published 2025)

Experiments:
[1] = test system: FAK and phosphorylated FAKY397; assay: FAK knockdown efficiency by western blot; assay type: cell-based; conditions: 50 nM FAKsiRNA, SK-OV-3 cells, western blot 72 hours after transfection
Description: SK-OV-3 cells were used as the research object, and Lipofectamine 3000 was used to transfect the cells with 50 nM FAKsiRNA. After the assay, proteins were collected to detect the expression of FAK and phosphorylated FAKY397.
Lipofectamine 3000 was used as a transfection reagent. Downstream combination and ICD biomarker assays can be performed 24 hours after the transfection. 72 hours after the transfection, SK-OV-3 cell proteins were collected, and western blot was performed to detect the amount of phosphorylated FAKY397, FAK and alpha tubulin.

[2] = test system: ovarian cancer cells SK-OV-3; assay: CCK8 cell viability / cell killing curve; assay type: cell-based; conditions: Homo sapiens, SK-OV-3, drug alone, 72 hours
Description: A 96-well cell plate was plated with 5000 SK-OV-3 cells/well. After 24 hours, a drug with a maximum concentration of 20 μM was added and diluted with a 3-fold gradient dilution to set a total of 9 concentrations, with the lowest concentration being […]. After the drug and cells were co-incubated for 72 hours, 10 μL of CCK8 solution was added to each well, and the plate was incubated in a 37° C. and 5% carbon dioxide incubator for 2 hours. Then, a microplate reader was used for reading with a set absorbance wavelength of 450 nm. The values read were compared with the DMSO control group and plotted using Graphpad 8.0.
A 96-well cell plate was plated with 5000 SK-OV-3 cells/well. […] Adriamycin at these dosages was combined with 3 μM IN10018. After 72 hours of co-culture with the cells, cell viability was detected using CCK8 method. Graphpad 8.0 was used for plotting.
A 96-well cell plate was plated with 5000 SK-OV-3 cells/well. […] Adriamycin at these dosages was combined with 3 μM Defactinib. After 72 hours of co-culture with the cells, cell viability was detected using CCK8 method. Graphpad 8.0 was used for plotting.

CT26 cells = assay: Microscope observation and flow cytometry of CRT and Annexin-V positive cells; assay type: cell-based, mouse; conditions: IN10018 5 μM, Adriamycin 1 μM, alone or combined, 48 hours
Description: Then the cells were collected for flow analysis.
The culture conditions were 37° C. and 5% CO2.

Granzyme B = assay: ELISA of Granzyme B in serum of CT26 tumor-bearing mice; assay type: in vivo, BALB/c mice; conditions: IN10018 25 mg/kg PO QD × 8, Doxil 3 mg/kg i.v. QW × 2; blood 24 hours after the second administration of Doxil; n=5
Description: (§1) BALB/c mice (from Shanghai Lingchang Biotechnology Co., Ltd.) were used to construct the CT26 tumor cell model. When the tumor volume reached about 40 to 60 mm^3, the mice were randomly divided into groups according to the tumor volume and administered.
(§2) 24 hours after the second administration of Doxil, blood was collected from the orbit of four groups of animals. The blood was placed in a collection tube without anticoagulant and left standing to naturally coagulate at room temperature for 30 to 60 minutes. When the blood coagulated, the blood was centrifuged at 1000 rpm, 4° C. for 10 minutes. The upper serum was transferred to a new collection tube and stored in a −80° C. freezer.

IFN-γ = assay: ELISA of IFN-γ in serum of CT26 tumor-bearing mice; assay type: in vivo, BALB/c mice; conditions: IN10018 25 mg/kg PO QD × 8, Doxil 3 mg/kg i.v. QW × 2; blood 24 hours after the second administration of Doxil; n=5
Description: as §1, §2

Compound	knockdown effect on phosphorylated FAKY397 and total FAK proteins [1]	IC50 [2] [µM]	cell-killing effect observed under a microscope (CT26 cells)	Granzyme B protein concentration in serum (Granzyme B) [pg/mL]	IFN-γ protein concentration in serum (IFN-γ) [pg/mL]
FAKsiRNA: small interfering RNA for FAK knockdown, GenePharma; GGGCAUCAUUCAGAAGAUATT / UAUCUUCUGAAUGAUGCCCTT (chemistry not given here)	significant knockdown effect				
COc1cccc2c1C(=O)c1c(O)c3c(c(O)c1C2=O)C[C@@](O)(C(=O)CO)C[C@@H]3O[C@H]1C[C@H](N)[C@H](O)[C@H](C)O1 [Adriamycin, doxorubicin, reference compound]		0.3	had cell-killing effect		
COc1cc(C(=O)NC2CCN(C)CC2)c(F)cc1Nc1ncc(C(F)(F)F)c(Oc2cccc3c2C(=O)N(C)C3)n1 [IN10018]		10	in good condition	50.48 ± 53.08	367.24 ± 7.34
